Patent US20190218531A1 (priority 2018, published 2019)

System: B. subtilis 3610
Assay type: cell-based, Bacillus subtilis

Row | Structure (SMILES) | effect on inhibition of B. subtilis growth in co-culture with S. elongatus
1 | CN(C)C(=O)Nc1ccc(Cl)c(Cl)c1 [DCMU, 3-(3,4-dichlorophenyl)-1,1-dimethylurea] | mitigated
2 | O=S(O)(O)=S [thiosulfate] | mitigated
